Source: article PMC6570783, “The Novel C5aR Antagonist DF3016A Protects Neurons Against Ischemic Neuroinflammatory Injury” (Neurotoxicity Research, 2019)
pIC50: −log10 of the molar value.

Tests used:
[1] = system: PMN migration induced by fMLP; assay: fMLP-induced PMN migration; format: cell-based; conditions: up to 10 μM
Experimental: (§8) Migration of human, rat, and mouse PMNs was evaluated using a 48-well micro-chemotaxis chamber, as previously described (Bertini et al. [2004]). […] The chamber was incubated at 37 °C in air with 5% CO2 for 45 min. At the end of incubation, filters containing migrated cells were removed, fixed, and stained with Diff-Quik, and five oil immersion fields at high magnification (×100; Zeiss microscope) were counted after sample coding.

[2] = system: spontaneous cell migration; assay: Spontaneous PMN migration; format: cell-based
Experimental: as §8

[3] = system: panel of GPCRs, enzymes, ion channels, transporters, and nuclear receptors (44 targets); assay: SafetyScreen44 Panel radioligand binding (Eurofins Cerep); conditions: 10 μM, triplicate
Experimental: DF3016A was tested in the SafetyScreen44 Panel performed at Eurofins Cerep SA (France) by radio ligand binding assays to assess the off-target activities towards a panel of GPCRs, enzymes, ion channels, transporters, and nuclear receptors. All selected targets are recommended by four major pharmaceutical companies (Bowes et al. [2012]). The compound was tested at a single concentration of 10 μM in triplicate.
DF3016A was dissolved in dimethyl sulfoxide (DMSO) to achieve 10 mM stock solution that was diluted with water/HBSS to a final concentration of 10 μM. Cell membrane homogenates (48 μg protein) were incubated for 60 min at 22 °C with the respective reference compound in the absence or presence of the test compound in a buffer containing 50 mM Tris-HCl (pH 7.4), 2 mM MgCl2, and 1 mM ethylene-diamine-tetra-acetic acid (EDTA). After incubation, the samples were filtered rapidly under vacuum through glass fiber filters (GF/B, Packard Instruments, Meriden, CT, USA) presoaked with 0.3% polyethyleneimine (PEI), and rinsed several times with ice-cold 50 mM Tris-HCl using a 96-sample cell harvester (Unifilter, Packard Instruments). The filters were dried, then counted for radioactivity in a scintillation counter (Topcount, Packard Instruments) using a scintillation cocktail (Microscint-O, Packard Instruments).

[4] = system: PMN migration induced by CXCL8; assay: CXCL8-induced PMN migration; format: cell-based; conditions: up to 10 μM
Experimental: as §8

[5] = Rat plasma protein binding (rPPB); format: in vitro ADME
[6] = system: Ca2+ influx in OGD/R neurons; assay: Fluo-4 NW calcium assay in OGD/R neurons; format: cell-based, rat; conditions: 500 nM, P < 0.001 OGD/R-DF vs OGD/R-UT
Experimental: Neuronal cells, grown on 96-well plates, were exposed to OGD/R and treated with 500 nM of DF3016A; growth media were removed, and 100 μl of the dye loading solution (F36206 Fluo-4 NW Calcium Assay Kit, Invitrogen) was added carefully to each well. Plates were incubated at 37 °C for 30 min and then at room temperature for an additional 30 min. […] Data were presented as the ratio between Ca^++ influx and neuronal viability.

[7] = rat, in vivo, po, 30 mg/kg
Experimental: SD rats (370–450 g and 3–4 months of age at the time of testing) were purchased from Charles River, UK. All animals were housed in groups of three per room under controlled conditions of temperature (19 to 21 °C) and humidity (50%), and maintained on a 12-h light/dark cycle (lights on at 7 and lights off at 19 including a 30-min dawn/dusk lights increasing/dimming period, respectively). Animals had free access to rat chow pellets CRM (P) and water except during the experimental procedures. All animals were weighed immediately before the test. The test drug was administered orally at 30 mg/kg using saline solution (0.9% NaCl) as vehicle. […] Cardiac blood samples, 0.6 ml, were obtained and placed in EDTA-coated tubes. The tubes were spun at 13,000 rpm for 4 min and 100 μl of supernatant taken and immediately stored at − 80 °C prior to analysis. Plasma samples were analyzed by liquid chromatography–mass spectrometry (LC-MS/MS) following extraction by protein precipitation with internal standard in acetonitrile, and levels of parent measured against an extracted calibration curve of plasma samples spiked with test compound. The whole brain was harvested then placed in a plastic tube and immediately frozen at − 80 °C until required. Brain tissue were homogenized and analyzed by LC-MS/MS following extraction by protein precipitation, and levels of parent measured against an extracted calibration curve of brain homogenate samples spiked with the test compound. Total exposure levels of the test compound in brain and plasma at 2 h postdose were determined.

C5aR = C5aR (Homo sapiens, UniProt P21730); conditions: read-out: IC50, inhibition of C5a-induced human PMN migration; human PMNs, 10 nM C5a
Experimental: (§1) Migration of human, rat, and mouse PMNs was evaluated using a 48-well micro-chemotaxis chamber, as previously described (Bertini et al. [2004]). […] Fifty microliters of cell suspension (1.5 × 10^6/ml for human PMNs, 3.0 × 10^6/ml for rat and mouse PMNs) pre-incubated at 37 °C for 15 min in the presence or absence of different concentrations of DF3016A or vehicle was seeded in the upper compartment. The chamber was incubated at 37 °C in air with 5% CO2 for 45 min. At the end of incubation, filters containing migrated cells were removed, fixed, and stained with Diff-Quik, and five oil immersion fields at high magnification (×100; Zeiss microscope) were counted after sample coding.

IL-1β = IL-1β release (ELISA) in OGD/R neurons; format: cell-based, rat; conditions: 500 nM
Experimental: (§2) Quantitative measurements of cellular proteins (C5a, TNF-α, IL-1β, and IL-6) in cell culture supernatants were determined by ELISA methods using Rat IL-6, Mouse TNFα, Rat IL-1β PicoKine™ ELISA Kits (Boster Biological Technology) and Rat C5a ELISA Kit (Elabscience Biotechnology Inc.) according to the manufacturer’s instructions. All tests were performed in triplicate.

[8] = Rat oral pharmacokinetics; format: in vivo
mouse C5aR = mouse C5aR (Mus musculus, UniProt P30993); conditions: read-out: IC50, mouse C5aR (C5a-induced PMN migration); mouse PMNs, 10 nM mC5a
Experimental: (§3) Murine and rat PMNs were isolated from peritoneal cavities injected with 1.5 ml of 3% thioglycolate in saline to male Balb/c mice (20–25 g and 7–9 weeks of age, provided by Charles River, Calco, Italy) or with […] of 3% thioglycolate in saline to SD rat (370–450 g and 3–4 months of age provided by Charles River, UK). Four hours after injection, the animals were sacrificed by decapitation and peritoneal cavities were washed with saline. PMNs were recovered and centrifuged at 600×g for 10 min. The pellet was resuspended in Hank’s Balanced Salt Solution (HBSS); then the cells were counted using Türk’s solution and diluted at 3 × 10^6 cells/ml.
as §1

rat C5aR = rat C5aR (Rattus norvegicus, UniProt P97520); conditions: read-out: IC50, rat C5aR (C5a-induced PMN migration); rat PMNs, 10 nM rC5a
Experimental: as §3, §1

[9] = system: cortical neurons exposed to OGD/R; assay: AO/ET staining of live and dead neurons after OGD/R; format: cell-based, rat; conditions: 500 nM, OGD/R 3 h
Experimental: DF3016A (500 nM) was added to the cortical neurons which were exposed to O2 and glucose deprivation with glucose-free Neurobasal in Hypoxia Chamber for Cell Culture (BioSpherix) at 5% CO2 atmosphere-85% N2. O2 concentration was monitored by using a ProOx sensor controller, and the 0.03% O2 value was considered acceptable. Cells were incubated in this anaerobic chamber for 1 h and then removed from the anaerobic environment. […] Cells of control group were treated identically except that they were not exposed to OGD/R.
Images have been acquired through a fluorescent microscope combined with a Digital Color Camera.

[10] = system: PMN migration induced by CXCL12; assay: CXCL12-induced PMN migration; format: cell-based; conditions: up to 10 μM
Experimental: as §8

[11] = Rat brain tissue binding (rBTB); format: in vitro ADME
[12] = system: PMN migration induced by CCL3; assay: CCL3-induced PMN migration; format: cell-based; conditions: up to 10 μM
Experimental: as §8

[13] = system: LPS-induced PGE2 accumulation; assay: LPS-induced PGE2 production in peritoneal murine macrophages; format: cell-based, mouse; conditions: up to 10 μM, LPS 1 μg/ml, 24 h
Experimental: Cells were placed at 1 × 10^6 ml^−1 in 96-well plates and non-adherent cells removed by gentle washing 2 h later. DF3016A was then added to adherent macrophages 20 min before adding lipopolysaccharide (LPS) (1 μg ml^−1). Control cells received vehicle at the appropriate dilution. Total prostaglandin E2 (PGE2) production was determined in the supernatant 24 h after LPS stimulation. PGE2 levels were measured by Enzyme Immunoassay (EIA) Kit (sensitivity 2.5 pg per well).

TNF-α = TNF-α release (ELISA) in OGD/R neurons; format: cell-based, rat; conditions: 500 nM
Experimental: as §2

C5aR gene expression = C5aR gene expression (qRT-PCR) in OGD/R neurons; format: cell-based, rat; conditions: 500 nM
Experimental: (§4) The total RNA, including microRNA (miRNA), from cells in cultures were extracted with Ribospin Kit (GenaAll) followed by Riboclear Plus Kit (GenaAll) to remove residual DNA according to the manufacturer’s protocols.
(§5) Total mRNA transcription (2μg/20 μl) was performed using High Capacity cDNA Reverse Transcription Kit (Applied Biosystems) and reverse transcription for MicroRNA (10 ng/15 μl) was performed using TaqMan MicroRNA Reverse Transcription Kit (Applied Biosystems).
(§6) The qPCR 20 μl/reactions for miR-181a (assay ID: hsa-miR-181a) and C5aR (assay ID: Rn02134203_s1) were conducted in triplicate using TaqMan® MicroRNA Assay Kit and TaqMan® Gene Expression Assays protocol (Applied Biosystems), respectively, following the manufacturer’s instructions. Reactions were performed using a Step One Plus Applied Biosystems thermocycler (Life Technologies) with the default protocol. Briefly, for each reaction 40 cycles of amplification with the following profile were performed: 95 °C for 10 min for the first cycle, followed by 40 cycles of 95 °C for 15 s, and 60 °C for 1 min.
(§7) Relative intensity of PCR-specific amplicons was calculated using the 2^−ΔΔCt method (Livak and Schmittgen [2001]). Beta-actin (assay ID: Rn00667869_m1) and U6 (assay ID: 001973) small nuclear RNA (snRNA) (Han et al. [2015]) were used as internal control to normalize the level of each transcript.

[14] = system: PMN migration induced by CXCL1; assay: CXCL1-induced PMN migration; format: cell-based; conditions: up to 10 μM
Experimental: as §8

[15] = system: cortical neurons exposed to OGD/R; conditions: 500 nM, 1 h OGD, 3 to 48 h of reperfusion
Experimental: DF3016A (500 nM) was added to the cortical neurons which were exposed to O2 and glucose deprivation with glucose-free Neurobasal in Hypoxia Chamber for Cell Culture (BioSpherix) at 5% CO2 atmosphere-[…]. O2 concentration was monitored by using a ProOx sensor controller, and the 0.03% O2 value was considered acceptable. Cells were incubated in this anaerobic chamber for 1 h and then removed from the anaerobic environment. […] Cells of control group were treated identically except that they were not exposed to OGD/R.

miR-181a = miR-181a expression (qPCR) in OGD/R neurons; format: cell-based, rat; conditions: 500 nM, P < 0.001 OGD/R-DF vs OGD/R-UT
Experimental: as §4, §5, §6, §7

C5a protein level = assay: C5a protein release (ELISA) in OGD/R neurons; format: cell-based, rat; conditions: 500 nM
Experimental: as §2

[16] = system: primary rat cortical neurons; assay: Neuronal viability (MTS), toxicity of DF3016A
Experimental: Neuronal cultures were prepared from cortices of 17–18-day-old Sprague-Dawley rat fetuses. Two pregnant rats, provided from Envigo RMS S.r.l. (Z.I. Azzida, 57–33,049 S. Pietro al Natisone, Udine Italy), were euthanized by exposition to a gradually rising concentration of CO2 and then decapitated. Rat brains were isolated using standard procedures, and after the elimination of meninges, the cortical tissues were dissociated by trituration and digestion with 20 U/ml papain (Invitrogen, Karlsruhe, Germany) for 30 min at 37 °C. Approximately 1 × 10^6 cells in 1 ml DMEM/F12 medium containing 0.2 mM Glutamax, 1% penicillin/streptomycin (Pen/Strep), 5% fetal bovine serum, and 5% horse serum were seeded into poly-D-lysine pretreated plates. […] Neurons were maintained in a humidified atmosphere (5% CO2/95% air) at 37 °C and used for experiments after 8–10 days in vitro.
DF3016A was dissolved in DMSO. The final concentration of DMSO in the medium was below 0.1%. […]
Quantifications of neuronal viability were assessed by MTS method using Cell Titer One Solution Cell Proliferation Assay (Promega Corporation Madison, WI, USA) based on 3-(4,5-dimethylthiazol-2-yl)-5-(3-carboxymethoxyphenil)-2-(4-sulfophenyl)-2H-tetrazolium (MTS) (dilution 1:10). Viable cells with active metabolism convert MTT into formazan, detected by absorbance measurements at 490 nm in a BioTeek Elx800 microplate reader.

Chain of C5aR (P21730 whole entry): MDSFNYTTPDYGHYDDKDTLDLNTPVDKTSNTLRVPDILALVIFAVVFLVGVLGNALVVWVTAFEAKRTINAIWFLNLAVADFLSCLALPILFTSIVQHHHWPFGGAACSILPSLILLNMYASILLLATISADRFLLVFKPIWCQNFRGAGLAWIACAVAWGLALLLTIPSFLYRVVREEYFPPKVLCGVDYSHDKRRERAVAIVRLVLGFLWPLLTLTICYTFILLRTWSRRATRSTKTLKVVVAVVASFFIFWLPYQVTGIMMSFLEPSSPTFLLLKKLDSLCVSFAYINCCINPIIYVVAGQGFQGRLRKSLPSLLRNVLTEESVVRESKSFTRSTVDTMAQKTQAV
Chain of mouse C5aR (P30993 whole entry): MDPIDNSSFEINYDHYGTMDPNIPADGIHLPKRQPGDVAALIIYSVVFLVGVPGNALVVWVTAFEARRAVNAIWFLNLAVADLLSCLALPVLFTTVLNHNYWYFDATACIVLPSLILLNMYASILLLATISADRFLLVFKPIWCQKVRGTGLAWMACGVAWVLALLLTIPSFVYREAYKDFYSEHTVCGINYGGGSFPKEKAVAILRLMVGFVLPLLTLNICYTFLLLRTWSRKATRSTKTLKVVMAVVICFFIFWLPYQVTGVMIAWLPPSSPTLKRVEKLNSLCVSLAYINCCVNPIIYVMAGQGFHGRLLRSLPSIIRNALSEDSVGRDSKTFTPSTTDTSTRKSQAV
Chain of rat C5aR (P97520 whole entry): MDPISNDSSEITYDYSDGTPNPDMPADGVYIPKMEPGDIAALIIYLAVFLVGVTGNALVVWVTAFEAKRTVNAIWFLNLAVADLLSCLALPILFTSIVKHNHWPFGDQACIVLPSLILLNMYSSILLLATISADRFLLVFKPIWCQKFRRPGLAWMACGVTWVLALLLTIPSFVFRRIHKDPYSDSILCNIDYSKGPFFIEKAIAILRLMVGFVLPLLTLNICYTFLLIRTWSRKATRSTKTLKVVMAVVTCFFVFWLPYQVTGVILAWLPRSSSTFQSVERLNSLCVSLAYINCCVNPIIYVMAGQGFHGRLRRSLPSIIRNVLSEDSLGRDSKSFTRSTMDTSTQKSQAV

Compound: CC(c1ccc(Nc2nc(C(F)(F)F)cs2)cc1)c1nnn[nH]1 (stereo not shown) [DF3016A]
- Effect on PMN migration induced by fMLP [1]: no effect
- Inhibition of spontaneous cell migration per se [2]: did not inhibit
- Inhibition of the assayed receptors (off-target activities, 44 targets) [3]: did not show any inhibition
- Effect on PMN migration induced by CXCL8 [4]: no effect
- rPPB Fu (free plasma fraction) [5]: 0.7%
- Ca2+ influx in OGD/R neurons [6]: significant reduction
- Plasma Cmax [7]: 104,683 ± 8867 ng/mL
- Kp (brain to plasma ratio) ([7]; 2 h): 0.04
- Kpuu (unbound brain to plasma ratio) ([7]; 2 h): 0.44
- pIC50 (C5aR): 7.30
- IL-1β release after OGD/R (IL-1β): restoration of control conditions
- Oral t1/2 [8]: 6.1 h
- Rat bioavailability [8]: 69%
- pIC50 (mouse C5aR): 7.43
- pIC50 (rat C5aR): 7.35
- Neuronal death by AO/ET staining [9]: close to that of control
- Effect on PMN migration induced by CXCL12 [10]: no effect
- rBTB Fu (free brain fraction) [11]: 7.7%
- Effect on PMN migration induced by CCL3 [12]: no effect
- Effect on LPS-induced PGE2 accumulation [13]: no effect
- TNF-α release after OGD/R (TNF-α): restoration of control conditions
- C5aR gene expression after OGD/R (C5aR gene expression): reverted C5aR gene expression to the control levels
- Effect on PMN migration induced by CXCL1 [14]: no effect
- Effect on OGD/R-induced cell death (MTS) [15]: significantly attenuated OGD/R-induced cell death
- miR-181a over-expression after OGD/R (miR-181a): completely attenuated
- C5a protein level after OGD/R (C5a protein level): restored C5a protein level to not significant values compared to control
- Mortality compared to the control ([16]; 10 nM to 5 μM, 24 h, MTS): no significant mortality
- Viability changes on longer treatment ([16]; 500 nM, 24, 48, and 72 h): without significant viability changes
